Assay results reported in the supplement of paper PMC10307832.

Assays:
Experiment in all cases: relative viability (nuclei count vs DMSO), 5 days (fraction); higher = more cells survive
Bleomycin + Phenformin = compound: CC1=C(N=C(N=C1N)[C@H](CC(=O)N)NC[C@@H](C(=O)N)N)C(=O)N[C@@H]([C@H](C2=CN=CN2)OC3C(C(C(C(O3)CO)O)O)OC4C(C(C(C(O4)CO)O)OC(=O)N)O)C(=O)N[C@H](C)[C@H]([C@H](C)C(=O)N[C@@H]([C@@H](C)O)C(=O)NCCC5=NC(=CS5)C6=NC(=CS6)C(=O)NCCC[S+](C)C)O [Bleomycin] + N=C(N)NC(=N)NCCc1ccccc1 [Phenformin] (partner 250 µM); details: main component drawn
Outline: (§1)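 Relative viability was taken as the ratio of nuclei in treated wells to nuclei in vehicle wells. Lung cancer cell lines in 1536-well plates received compounds by pin tool one day after seeding, either one drug alone or a fixed anchor-drug dose plus five library-drug doses (not always all listed) in √10 steps. Nuclei were counted on 4× images after 5 days of treatment, and values are medians of duplicate plates.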

Etoposide + Trametinib = compound: COc1cc([C@@H]2c3cc4c(cc3[C@@H](O[C@@H]3O[C@@H]5CO[C@@H](C)O[C@H]5[C@H](O)[C@H]3O)[C@H]3COC(=O)[C@H]23)OCO4)cc(OC)c1O [Etoposide] + CC(=O)Nc1cccc(-n2c(=O)n(C3CC3)c(=O)c3c(Nc4ccc(I)cc4F)n(C)c(=O)c(C)c32)c1 [Trametinib] (partner 0.02 µM)
Outline: as §1

Etoposide + Pictilisib = compound: COc1cc([C@@H]2c3cc4c(cc3[C@@H](O[C@@H]3O[C@@H]5CO[C@@H](C)O[C@H]5[C@H](O)[C@H]3O)[C@H]3COC(=O)[C@H]23)OCO4)cc(OC)c1O [Etoposide] + CS(=O)(=O)N1CCN(Cc2cc3nc(-c4cccc5[nH]ncc45)nc(N4CCOCC4)c3s2)CC1 [Pictilisib] (partner 1 µM)
Outline: as §1

Etoposide + Vorinostat = compound: COc1cc([C@@H]2c3cc4c(cc3[C@@H](O[C@@H]3O[C@@H]5CO[C@@H](C)O[C@H]5[C@H](O)[C@H]3O)[C@H]3COC(=O)[C@H]23)OCO4)cc(OC)c1O [Etoposide] + O=C(CCCCCCC(=O)Nc1ccccc1)NO [Vorinostat] (partner 1 µM)
Outline: as §1

Cell Line	relative viability (Bleomycin + Phenformin; first compound 0.01 µM)	relative viability (Bleomycin + Phenformin; first compound 0.03162 µM)	relative viability (Bleomycin + Phenformin; first compound 0.1 µM)	relative viability (Bleomycin + Phenformin; first compound 0.3162 µM)	relative viability (Bleomycin + Phenformin; first compound 1 µM)	relative viability (Etoposide + Trametinib; first compound 0.01 µM)	relative viability (Etoposide + Trametinib; first compound 0.03162 µM)	relative viability (Etoposide + Trametinib; first compound 0.1 µM)	relative viability (Etoposide + Trametinib; first compound 0.3162 µM)	relative viability (Etoposide + Trametinib; first compound 1 µM)	relative viability (Etoposide + Pictilisib; first compound 0.01 µM)	relative viability (Etoposide + Pictilisib; first compound 0.03162 µM)	relative viability (Etoposide + Pictilisib; first compound 0.1 µM)	relative viability (Etoposide + Pictilisib; first compound 0.3162 µM)	relative viability (Etoposide + Pictilisib; first compound 1 µM)	relative viability (Etoposide + Vorinostat; first compound 0.01 µM)	relative viability (Etoposide + Vorinostat; first compound 0.03162 µM)	relative viability (Etoposide + Vorinostat; first compound 0.1 µM)	relative viability (Etoposide + Vorinostat; first compound 0.3162 µM)	relative viability (Etoposide + Vorinostat; first compound 1 µM)
LC-2-ad	0.493	0.536	0.385	0.283	0.238	0.884	0.902	0.988	0.743	0.689	0.448	0.595	0.318	0.237	0.16	0.687	0.736	0.69	0.459	0.245
NCI-H1703											0.234	0.313	0.269	0.214	0.171					
NCI-H1437	0.248	0.283	0.287	0.229	0.212	0.417	0.551	0.361	0.412	0.298	0.588	0.504	0.21	0.209	0.122	0.871	0.877	0.804	0.435	0.396
SW 1573	0.276	0.316	0.272	0.205	0.14	0.609	0.548	0.436	0.219	0.14	0.451	0.475	0.338	0.197	0.117	0.646	0.625	0.359	0.228	0.142
H3255	0.35	0.372	0.367	0.301	0.301	0.578	0.707	0.411	0.57	0.347	0.498	0.499	0.381	0.411	0.298	0.788	0.774	0.458	0.278	0.314
Calu-6											0.841	0.908	0.764	0.457	0.25					
NCI-H1792	0.316	0.309	0.195	0.197	0.164	0.47	0.5		0.371	0.335	0.261	0.261	0.129	0.216	0.147					
SK-MES-1	0.58	0.617	0.546	0.217	0.174	0.5	0.518	0.594	0.46	0.277	0.361	0.336	0.301	0.242	0.167	1.11	1.2	0.873	0.806	0.351
NCI-H1650	0.293	0.239	0.206	0.114	0.149	0.459	0.541	0.458	0.257	0.143	0.506	0.572	0.378	0.196	0.139	0.428	0.518	0.518	0.229	0.219
NCI-H2126	0.55	0.536	0.559	0.349	0.303	0.539	0.683	0.427	0.455	0.312	0.536	0.55	0.419	0.392	0.332	0.707	0.911	0.512	0.603	0.227
HCC-366	0.455	0.618	0.423	0.159	0.0675	0.338	0.36	0.249	0.0581	0.0512	0.198	0.188	0.0748	0.0491	0.0362	0.353	0.386	0.122	0.0606	0.0304
EBC-1											0.362	0.384	0.218	0.287	0.156					
NCI-H1623	0.548	0.631	0.513	0.442	0.333															
NCI-H2342	0.552	0.707	0.626	0.441	0.528	0.777	0.881	0.505	0.355	0.344						0.788	0.788	0.471	0.421	0.369
SW 900	0.592	0.447	0.335	0.11	0.16	0.741	0.653	0.649	0.354	0.25						0.413	0.468	0.408	0.295	0.167
NCI-H1563	0.581	0.658	0.64	0.551	0.511						0.661	0.653	0.61	0.501	0.555					
NCI-H1299											0.777	0.672	0.641	0.644	0.332					
NCI-H522	0.561	0.585	0.493	0.363	0.416	0.756	0.875	0.744	0.703	0.649						0.934	0.981	0.774	0.841	0.834
A549	0.143	0.139	0.444	0.0518	0.0392						0.49	0.432	0.221	0.0914	0.0659					
NCI-H1648							0.552	0.362	0.523	0.416							0.58	0.306	0.3	0.329
IA-LM											0.398	0.31	0.236	0.282	0.138	0.701	1	0.577	0.826	0.354
ABC-1	0.241	0.234	0.258	0.239	0.199						0.765	0.711	0.386	0.345	0.228	1.07	1.57	0.571	0.55	0.223
